According to PMC8136874, “The entry reaction of the plant shikimate pathway is subjected to highly complex metabolite-mediated regulation” (The Plant Cell, 2021):

Assays:
AthDHS3 = AthDHS3 (Arabidopsis thaliana, UniProt Q9SK84); assay: DHS enzymatic activity assay with recombinant AthDHS3; assay type: biochemical; settings: for V max: various concentrations of the substrate, means ± SEM, n = 3
Protocol: (§1) Unless otherwise noted, DHS enzymatic activity was monitored as previously described ([Liu et al., 2008]), with several optimizations for high-throughput assays with eight-strip PCR tubes and a thermal cycler. The enzyme solution (7.7 µL) containing 50 mM HEPES (pH 7.4) was preincubated with an effector molecule(s) at room temperature for 10 min. For assays using recombinant protein and enzyme fraction isolated from plant leaves, 0.01–0.05 µg and approximately 50 µg of proteins were used, respectively. After adding 0.5 µL of 0.1 M DTT, the samples were further incubated at room temperature for 15 min. […] The enzyme reaction was started by adding 6.8 µL of the substrate solution, then incubated at 37°C for 20 min, and terminated by adding 30 µL of 0.6 M trichloroacetic acid. After brief centrifugation, 5 µL of 200 mM NaIO4 (sodium meta-periodate) in 9 N H3PO4 was added to oxidize the enzymatic product and incubate at 25°C for 20 min. To stop the oxidation reaction, 20 µL of 0.75 M NaAsO2 (sodium arsenite), which was dissolved in 0.5 M Na2SO4 and 0.05 M H2SO4, was immediately mixed. After 5 min of incubation at room temperature, one-third of the sample solution was transferred to a new tube to be mixed with 50 µL of 40 mM thiobarbituric acid and incubated at 99°C for 15 min in a thermal cycler. Developed pink chromophore was extracted by putting the final solutions with 600 µL of cyclohexanone in eight-strip solvent-resistant plastic tubes, mixing vigorously and centrifuging them at 4,500 × g for 3 min to separate water- and cyclohexanone-based layers. The absorbance of the pink supernatant was read at 549 nm with the microplate reader (Infinite 200 PRO, TECAN, Männedorf, Switzerland) to calculate DAHP production with the molar extinction coefficient at 549 nm (ε = 549 nm) of 4.5 × 10^4/M/cm. Reaction mixtures with boiled enzyme or without any substrates were run in parallel and used as negative controls to estimate the background signal for recombinant enzymes or enzymatic fraction from plant tissues, respectively.
(§2) For determination of kinetic parameters, the data of enzymatic activities measured in the presence of various concentration of substrates were calculated with the Michaelis–Menten equation in Graphpad Prism 6 (GraphPad Software, San Diego, CA, USA).

AthDHS2 = target: T1, AthDHS2 (Arabidopsis thaliana, UniProt Q00218); assay: DHS enzymatic activity assay with recombinant AthDHS2; assay type: biochemical; settings: for effect on AthDHS2 activity (in words) / inhibition of AthDHS2 activity: 1 mM effector; for k cat / K m / V max: various concentrations of the substrate; for k cat: E4P values assume no substrate inhibition; for K m / V max: E4P values estimated from Lineweaver–Burk plots because of substrate inhibition
T1 construct: AthDHS2; residues 34–507; hexa-histidine; made in house; host or cells: E. coli Rosetta2 (DE3), pET28a

AthDHS1 = target: T2, AthDHS1 (Arabidopsis thaliana, UniProt P29976); assay: DHS enzymatic activity assay with recombinant AthDHS1; assay type: biochemical; settings: for effect on AthDHS1 activity (in words): 1 mM effector; for K m / V max / k cat: various concentrations of the substrate, means ± SEM, n = 3
T2 construct: AthDHS1; residues 49–525; hexa-histidine; made in house; host or cells: E. coli Rosetta2 (DE3), pET28a
Protocol: as §1, §2

[1] = tested on: root growth of Arabidopsis Col-0 and dhs mutants; assay: Chemical feeding experiment, root length of 10-day-old seedlings; assay type: in vivo, Arabidopsis thaliana; settings: for effect of the added compound on Trp-mediated root growth inhibition of dhs3: media with 300 µM Trp; for effect of the added compound on Trp-mediated root growth inhibition of dhs3 / effect of the added compound on Tyr-mediated root growth inhibition of dhs1: AAAs added at 300 µM, shikimate at 500 µM; for effect of the added compound on Tyr-mediated root growth inhibition of dhs1: media with 300 µM Tyr
Protocol: Chemical feeding experiments were carried out as described previously ([de Oliveira et al., 2019]) with some modifications. Seedlings were grown on agar plates containing 0.5 MS with 1% sucrose, 0.8% agar, and 2.5 mM MES at pH 5.7 in the growth chamber where we grew other plants in soil. AAAs and/or shikimate were added to autoclaved media after cooling down to temperatures below 55°C. Plants were grown on the same plate side by side to minimize environmental effects, and multiple plates were prepared to obtain replications. Root lengths of 10-day-old seedlings were quantified by ImageJ.

[2] = tested on: AthDHS1 and AthDHS2 mixtures; assay: DHS assay using mixtures of AthDHS1 and AthDHS2 recombinant enzymes; assay type: biochemical, Arabidopsis thaliana; settings: 1 mM effector; molar ratios 0, 0.25, 0.5, 0.75, 1
Protocol: Next, we thought that the presence of non-inhibited DHS isoforms (e.g. AthDHS1) may affect the AAA sensitivity of AthDHS2, given that AthDHSs are known to function as tetrameric or dimeric forms ([Suzich et al., 1985]; [Pinto et al., 1986]; [Webby et al., 2005]). To test this, the recombinant enzymes of AAA non-inhibited AthDHS1 and AAA-inhibited AthDHS2 were mixed with different ratios (0, 0.25, 0.5, 0.75, and 1) and DHS activity assays were conducted with different inhibitors. Based on the kinetic parameters and the regulatory behaviors of individual AthDHSs, the expected level of DHS activity was first calculated and plotted (dotted lines in Figure 5, D, see the “Materials and methods” section). […] Similar results were obtained for the AthDHS2 and AthDHS3 mixture (Figure 5, E).
Unless otherwise noted, DHS enzymatic activity was monitored as previously described ([Liu et al., 2008]), with several optimizations for high-throughput assays with eight-strip PCR tubes and a thermal cycler. The enzyme solution (7.7 µL) containing 50 mM HEPES (pH 7.4) was preincubated with an effector molecule(s) at room temperature for 10 min. For assays using recombinant protein and enzyme fraction isolated from plant leaves, 0.01–0.05 µg and approximately 50 µg of proteins were used, respectively. After adding 0.5 µL of 0.1 M DTT, the samples were further incubated at room temperature for 15 min. […] The enzyme reaction was started by adding 6.8 µL of the substrate solution, then incubated at 37°C for 20 min, and terminated by adding 30 µL of 0.6 M trichloroacetic acid. After brief centrifugation, 5 µL of 200 mM NaIO4 (sodium meta-periodate) in 9 N H3PO4 was added to oxidize the enzymatic product and incubate at 25°C for 20 min. […] The absorbance of the pink supernatant was read at 549 nm with the microplate reader (Infinite 200 PRO, TECAN, Männedorf, Switzerland) to calculate DAHP production with the molar extinction coefficient at 549 nm (ε = 549 nm) of 4.5 × 10^4/M/cm. […]

[3] = tested on: shikimate accumulation in Col-0 and dhs mutants; assay: Shikimate content with and without Tyr and/or glyphosate treatment; assay type: in vivo, Arabidopsis thaliana; settings: 250 µM glyphosate, 2 days; for increase of shikimate accumulation after treatment: plants grown with 300 µM Tyr
Protocol: Approximately 50–80 mg of fully expanded mature leaves were pooled from multiple plants at the same developmental stages and ground in 800 µL of extraction buffer (v/v 2:1 of methanol and chloroform with 2 µg/mL isovitexin [Millipore-Sigma], 100 µM norvaline [Thermo Fisher Scientific], and 1.25 µg/mL Tocol [Matreya LLC, State College, PA, USA] for internal standards for soluble metabolite analysis by LC–MS and GC–MS and tocopherol analysis by GC–MS, respectively), using 1600 MiniG Tissue Homogenizer (SPEX SamplePrep, Metuchen, USA) and 3-mm glass beads. After adding 600 µL of H2O and then 250 µL of chloroform, polar phase containing amino acids, and non‐polar phase containing tocopherols were separated by centrifugation, dried in new tubes. To detect Trp and AAA-derived metabolites, LC–MS analysis was carried out as previous described with some modification ([Alseekh et al., 2015]). The dried metabolites were resuspended in 70 µL of 80% LC–MS-grade methanol. Two microliters of the sample was injected onto a HSS T3 C18 reversed phase column (100 × 2.1 mm i.d., 1.8-μm particle size; Waters, Milford, CT, USA) and eluted using a 20-min gradient comprising 0.1% formic acid in LC–MS-grade water (solvent A) and 0.1% formic acid in LC–MS-grade acetonitrile (solvent B) at a flow rate of 0.4 mL/min and column temperature of 40°C. The binary linear gradient with following ratios of solvent B was used: 0–1 min, 1%; 1–13 min, 1%–35%; 13–14.5 min, 35%–70%; 14.5–15.5 min, 70%–99%, 15.5–17 min, 99%; 17–17.5 min, 99%–[…]; 17.5–20 min, 1%. The spectra were recorded using full scan mode of negative ion detection, covering a mass range from m/z 100 to 1,500. The resolution was set to 25,000 and the maximum scan time was set to 250 ms. The sheath gas was set to a value of 60, while the auxiliary gas was set to 35. The transfer capillary temperature was set to 150°C, while the heater temperature was adjusted to 300°C. The spray voltage was fixed at 3 kV, with a capillary voltage and a skimmer voltage of 25 and 15 V, respectively. Retention times, MS spectra, and associated peak intensities were extracted from the raw files using the Xcalibur software (Thermo Fisher Scientific). […] For anthocyanin quantification, the polar phase isolated for amino acid analysis was diluted 10 times with water in a new tube. […] Shikimate level was spectrometrically determined based on previous literatures ([Shaner et al., 2005]; [Sharkhuu et al., 2014]). […] After stopping the reaction by adding 100 µL of a termination solution containing 0.6 N sodium hydroxide and 0.22 M sodium sulfite, the absorption at 380 nm was immediately measured with the microplate reader. Shikimate concentration was determined by comparing with a dilution series of the shikimate standards.

AthDHS3, sequence (Q9SK84 entry or part of it): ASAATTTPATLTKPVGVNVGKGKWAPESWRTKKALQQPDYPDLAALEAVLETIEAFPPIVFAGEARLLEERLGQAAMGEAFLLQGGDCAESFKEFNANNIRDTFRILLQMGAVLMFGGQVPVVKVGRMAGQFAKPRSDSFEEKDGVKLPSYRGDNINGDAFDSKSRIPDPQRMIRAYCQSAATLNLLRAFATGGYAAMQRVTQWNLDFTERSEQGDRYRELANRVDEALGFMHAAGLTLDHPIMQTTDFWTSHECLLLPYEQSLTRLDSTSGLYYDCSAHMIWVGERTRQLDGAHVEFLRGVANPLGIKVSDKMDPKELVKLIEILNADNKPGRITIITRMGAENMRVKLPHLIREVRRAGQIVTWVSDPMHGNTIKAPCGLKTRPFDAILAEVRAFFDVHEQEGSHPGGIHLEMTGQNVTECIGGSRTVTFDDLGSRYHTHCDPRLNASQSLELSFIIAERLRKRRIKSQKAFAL
T1 sequence (Q00218 34-507): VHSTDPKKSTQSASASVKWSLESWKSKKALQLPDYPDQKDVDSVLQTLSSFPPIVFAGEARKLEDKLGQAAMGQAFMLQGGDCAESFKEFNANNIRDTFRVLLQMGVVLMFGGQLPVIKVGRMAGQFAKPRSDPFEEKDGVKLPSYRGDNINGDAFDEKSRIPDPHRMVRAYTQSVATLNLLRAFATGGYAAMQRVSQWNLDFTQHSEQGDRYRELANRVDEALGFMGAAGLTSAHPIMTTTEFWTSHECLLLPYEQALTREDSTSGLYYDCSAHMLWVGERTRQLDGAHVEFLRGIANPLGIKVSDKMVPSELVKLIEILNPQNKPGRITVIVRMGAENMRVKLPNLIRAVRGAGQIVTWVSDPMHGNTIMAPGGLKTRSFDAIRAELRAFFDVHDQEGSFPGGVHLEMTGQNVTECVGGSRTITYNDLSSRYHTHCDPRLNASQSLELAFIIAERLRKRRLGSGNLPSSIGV
T2 sequence (P29976 49-525): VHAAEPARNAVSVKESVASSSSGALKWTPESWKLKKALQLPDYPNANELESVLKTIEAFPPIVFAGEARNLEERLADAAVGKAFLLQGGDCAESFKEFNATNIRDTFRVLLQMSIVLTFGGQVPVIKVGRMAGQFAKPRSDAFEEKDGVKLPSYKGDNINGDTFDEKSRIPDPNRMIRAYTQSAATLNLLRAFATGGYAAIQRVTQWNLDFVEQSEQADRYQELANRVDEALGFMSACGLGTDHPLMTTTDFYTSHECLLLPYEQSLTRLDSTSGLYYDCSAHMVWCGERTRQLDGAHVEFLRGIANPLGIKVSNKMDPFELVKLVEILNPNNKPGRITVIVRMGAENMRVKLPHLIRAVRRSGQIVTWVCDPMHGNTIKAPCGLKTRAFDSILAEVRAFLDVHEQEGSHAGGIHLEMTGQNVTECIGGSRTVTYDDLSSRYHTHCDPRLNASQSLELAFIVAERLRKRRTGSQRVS

O=C(/C=C/c1ccc(O)c(O)c1)OC1CC(C(=O)O)=CC(O)C1O (stereo not shown) [Caffeoyl shikimate]
reduction of AthDHS3 activity (AthDHS3; 1 mM effector): 70%
effect on AthDHS2 activity (in words) (AthDHS2): fully inhibited
effect on AthDHS1 activity (in words) (AthDHS1): fully inhibited

O=C[C@H](O)[C@H](O)COP(=O)(O)O [E4P, D-erythrose 4-phosphate]
V max (AthDHS3): 9.92 ± 0.31 nmol/µM/min
substrate concentration beyond which AthDHS2 was inhibited (AthDHS2; substrate inhibition): > 4 mM
k cat (AthDHS2): 11.8 ± 1.6 s⁻¹
K m (AthDHS2): 1755 ± 400 µM
V max (AthDHS2): 12.9 ± 1.8 nmol/µM/min
K m (AthDHS1): 2842 ± 910 µM
V max (AthDHS1): 17.8 ± 0.59 nmol/µM/min
k cat (AthDHS1): 16.4 ± 0.54 s⁻¹

C=C(OP(=O)(O)O)C(=O)O [PEP, phosphoenolpyruvate]
V max (AthDHS3): 9.15 ± 0.27 nmol/µM/min
k cat (AthDHS2): 8.95 ± 0.44 s⁻¹
K m (AthDHS2): 360 ± 34 µM
V max (AthDHS2): 9.81 ± 0.48 nmol/µM/min
K m (AthDHS1): 250 ± 53 µM
V max (AthDHS1): 15.3 ± 0.62 nmol/µM/min
k cat (AthDHS1): 14 ± 0.57 s⁻¹

N[C@@H](Cc1ccccc1)C(=O)O [Phe, L-phenylalanine]
IC50 ([1]; Arabidopsis thaliana, read-out: IC50 of root growth suppression): ~550 µM
concentration that suppressed root growth ([1]; all dhs mutants, similarly to Col-0): > 300 µM
effect of the added compound on Trp-mediated root growth inhibition of dhs3 [1]: not recovered
effect of the added compound on Tyr-mediated root growth inhibition of dhs1 [1]: not sufficient
effect on AthDHS3 activity (in words) (AthDHS3; 1 mM effector): did not significantly affect
concentration beyond which AthDHS2 activity is slightly activated (AthDHS2; 1 µM to at least 5 mM tested): > 5 mM
effect on AthDHS2 activity (in words) (AthDHS2): did not significantly affect
observed DHS activity of the enzyme mixtures versus theoretically calculated activity [2]: matched with the theoretical plot
effect on AthDHS1 activity (in words) (AthDHS1): did not significantly affect

N[C@@H](CC(=O)O)C(=O)O [aspartate]
effect on AthDHS1 activity (in words) (AthDHS1): did not affect

O=C(O)/C=C/c1ccccc1 [cinnamate]
effect on AthDHS3 activity (in words) (AthDHS3; 1 mM effector): no effects
effect on AthDHS2 activity (in words) (AthDHS2): no effects
effect on AthDHS1 activity (in words) (AthDHS1): no effects

COc1cc(/C=C/C(=O)O)ccc1O [ferulate]
effect on AthDHS3 activity (in words) (AthDHS3; 1 mM effector): no effects
effect on AthDHS2 activity (in words) (AthDHS2): no effects
effect on AthDHS1 activity (in words) (AthDHS1): no effects

O=C(O)CNCP(=O)(O)O [glyphosate]
increase of shikimate accumulation after treatment ([3]; dhs2): five-fold
increase of shikimate accumulation after treatment ([3]; other genotypes): two–three-fold
effect on shikimate levels ([3]; without Tyr, similar between genotypes): increased shikimate levels

O=C(O)/C=C/c1ccc(O)cc1 [p-coumarate]
effect on AthDHS3 activity (in words) (AthDHS3; 1 mM effector): no effects
effect on AthDHS2 activity (in words) (AthDHS2): no effects
effect on AthDHS1 activity (in words) (AthDHS1): no effects

O=C(O)C(=O)CC1(C(=O)O)C=CC(O)C=C1 (stereo not shown) [prephenate]
effect on AthDHS3 activity (in words) (AthDHS3; 1 mM effector): did not significantly affect
inhibition of AthDHS2 activity (AthDHS2): ~25%
effect on AthDHS1 activity (in words) (AthDHS1): did not significantly affect

O=C(O)C1=C[C@@H](O)[C@@H](O)[C@H](O)C1 [shikimate]
sensitivity of root growth ([1]; dhs mutants, up to 1000 µM): none of the dhs mutants showed sensitivity
effect of the added compound on Trp-mediated root growth inhibition of dhs3 [1]: no effect
effect of the added compound on Tyr-mediated root growth inhibition of dhs1 [1]: no effect
effect on AthDHS3 activity (in words) (AthDHS3; 1 mM effector): did not significantly affect
inhibition of AthDHS2 activity (AthDHS2): approximately 30%
effect on AthDHS1 activity (in words) (AthDHS1): did not significantly affect

COc1cc(/C=C/C(=O)O)cc(OC)c1O [sinapate]
effect on AthDHS3 activity (in words) (AthDHS3; 1 mM effector): no effects
effect on AthDHS2 activity (in words) (AthDHS2): no effects
effect on AthDHS1 activity (in words) (AthDHS1): no effects
